Here are results for 25 compounds from patent US10196363B2, “Dihydropyrimidin-2-one compounds and medical use thereof” (JAPAN TOBACCO INC., priority 2014, dated 2019).

In assay [1] the target is T1, human RORγ (Homo sapiens, UniProt P51449).
T1 construct: human RORγ, from Ser253 to Lys518; expressed in transfected cells; host or cells: CHO cells (Chinese hamster ovary), transient co-transfection with pG5-Luc
T1 sequence (P51449 253-518): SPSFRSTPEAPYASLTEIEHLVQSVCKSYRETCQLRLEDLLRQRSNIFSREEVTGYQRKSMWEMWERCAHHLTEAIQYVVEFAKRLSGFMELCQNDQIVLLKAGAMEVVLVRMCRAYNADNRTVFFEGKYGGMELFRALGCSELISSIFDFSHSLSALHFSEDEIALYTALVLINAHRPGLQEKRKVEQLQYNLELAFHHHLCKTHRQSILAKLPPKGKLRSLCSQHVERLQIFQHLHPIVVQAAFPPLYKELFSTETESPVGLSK
In words: In vitro assay of inhibitory effect against RORγ transcriptional activity (GAL4-hRORγ LBD luciferase reporter gene assay in CHO cells). Format: cell-based. The protocol:
(§1) In Vitro Assay of Inhibitory Effect Against RORγ Transcriptional Activity
(§2) Inhibitory effect of a test article on transcriptional activity of RORγ was measured by means of the following reporter gene assay.
(§3) cDNA encoding human and mouse RORγ ligand binding domain (LBD) were obtained based on the sequences of human RORγ (Genebank registered number NM_005060.3) and mouse RORγ (Genebank registered number NM_011281.2) (LBD sequence: human RORγ, from Ser253 to Lys518; mouse RORγ, from Ile251 to Lys516).
(§4) The LBD cDNA of human or mouse RORγ was inserted into pFA-CMV vector (Strategene), which expresses GAL4-DNA binding domain fusion protein. The resulting plasmids are hereinafter referred to as GAL4-hRORγ plasmid and GAL4-mRORγ plasmid, respectively.
(§5) GAL4-hRORγ plasmid or GAL4-mRORγ plasmid was transiently co-transfected into Chinese hamster ovary cells (CHO cells) with pG5-Luc (Promega), a reporter plasmid expressing firefly luciferase depending on GAL4.
(§6) TransIT (Registered trademark) CHO transfection reagent (Mirus) was used to co-transfect GAL4-hRORγ plasmid or GAL4-mRORγ plasmid into CHO cells with pG5-Luc plasmid. One day before the assay, CHO cells were suspended in HAM F-12 Nutrient medium containing 10 v/v % fetal bovine serum and seeded at 6×10^6 cells per 175 cm^2 cell culture flask. Fifty four micro litters of TransIT (Registered trademark) CHO reagent was added into a 15 ml tube containing 1.16 mL of HAM F-12 Nutrient medium without fetal bovine serum, and mixed and incubated at room temperature for 10 min. Thirty six micro litters of plasmid solution containing the GAL4-hRORγ plasmid (400 ng), pG5-Luc plasmid (9000 ng) and pcDNA3 plasmid (8600 ng) were added into the tube and mixed gently. In case of mouse assay, a plasmid solution containing the GAL4-mRORγ plasmid (250 ng), pG5-Luc plasmid (9000 ng) and pcDNA3 plasmid (8750 ng) was added, instead. The mixture was incubated at room temperature for 10 min. Nine micro litters of CHO Mojo Reagent were then added into each tube and mixed gently. The mixture was incubated at room temperature for 10 min. The resultant transfection reagent was applied to the cell culture. After incubation at 37° C., 5% CO2 for 4 hours, the plasmid-transfected CHO cells were harvested with a trypsin treatment. The collected cells were resuspended in HAM F-12 Nutrient medium supplemented with 10 v/v % fetal bovine serum and plated into a 384-well-white plate at 8,000 cells/50 μL/well. The plate was incubated at room temperature for 1 hour and then further incubated at 37° C., 5% CO2 for 3 hours. The test articles were dissolved in dimethylsulfoxide (DMSO) to obtain a concentration of 10 mM. The resulting solution was diluted with a medium just before use and added to the cells in the plate to prepare 8 different concentrations of the test article. The final concentration of DMSO was 0.2 v/v %. After the addition of the test articles, the cells were incubated at 37° C., 5% CO2 for 2 days.
(§7) RORγ transcriptional activity was detected as the intracellular luciferase activity using SteadyLite HTS Reporter Gene Assay System (Perkin Elmer). StedyLite Reagent was diluted five-fold into a solution containing Extension reagent (10 mM Tricine, 0.2% w/v BSA, 0.02% v/v Tween-20) to obtain the luciferase substrate solution. After the measurement of the cell viability using Resazurin, the culture media in the plate were removed, and then the luciferase substrate solution was added into each well. After the incubation at room temperature for 10 minutes, luminescence of each well was measured by a microplate reader. The luciferase activity derived from the luminescence count in the vehicle-control well treated with 0.2% DMSO alone was defined as 100%, and the luciferase activity in the test article was calculated as a percentage (%-of-control) based on the value of the vehicle-control. EC50 value of test article was calculated by curve fitting with GraphPad Prism. […]

For assay [2], the target named is T2, mouse RORγ (Mus musculus, UniProt P51450).
T2 construct: mouse RORγ, from Ile251 to Lys516; expressed in transfected cells; host or cells: CHO cells (Chinese hamster ovary), transient co-transfection with pG5-Luc
T2 sequence (P51450 251-516): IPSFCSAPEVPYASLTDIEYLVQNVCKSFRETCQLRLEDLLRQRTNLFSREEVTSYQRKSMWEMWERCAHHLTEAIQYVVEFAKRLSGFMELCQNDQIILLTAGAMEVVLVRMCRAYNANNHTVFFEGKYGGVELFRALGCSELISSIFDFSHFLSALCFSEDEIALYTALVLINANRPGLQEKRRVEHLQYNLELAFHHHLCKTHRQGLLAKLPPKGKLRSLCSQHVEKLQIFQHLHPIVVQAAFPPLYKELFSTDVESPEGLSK
Briefly: In vitro assay of inhibitory effect against RORγ transcriptional activity (GAL4-mRORγ LBD luciferase reporter gene assay in CHO cells). Format: cell-based. The protocol: as §1, §2, §3, §4, §5, §6, §7

[3] abbreviates: GAL4-hRORγ LBD / pG5-Luc in CHO cells, 2 days incubation.
The mark [4] stands for this setting: GAL4-mRORγ LBD / pG5-Luc in CHO cells, 2 days incubation.
Setting [5] is: GAL4-hRORγ LBD luciferase reporter, CHO cells, read-out: LUC EC50 hRORγ.
The mark [6] stands for this setting: value in parentheses beside the EC50 bound, vehicle-control 0.2% DMSO alone = 100%.
Where [7] appears, read: GAL4-mRORγ LBD luciferase reporter, CHO cells, read-out: LUC EC50 mRORγ.

Read-outs that look alike come from different tables or passages of the source.

With `CC(C)C1=CN(CCC(=O)O)C(=O)NC1(C)c1ccc(C2=CC(C)(C)CCC2)c(Cl)c1` (single isomer, unassigned) [Example 151], the values for the EC50 in assay [1] (setting [3]) and in assay [2] (setting [4]) were 0.018 µM and 0.023 µM, respectively.
For `COCCN1C=C(C(C)(C)CCC(=O)O)C(C)(c2ccc(CCC(C)(C)C)c(Cl)c2)NC1=O` (single isomer, unassigned) [Example 160] the same measures were 0.015 µM and 0.04 µM.
`CC(C)C1=CN(CCC(=O)O)C(=O)NC1(C)c1ccc(C2CCCC(C)(C)C2)c(Cl)c1` (single isomer, unassigned) [Example 166]: the EC50 in assay [1] (setting [3]) was found to be 0.014 µM; in assay [2] (setting [4]) it was 0.029 µM.
As to `CC(C)C1=CN(CCC(=O)O)C(=O)NC1(C)c1ccc(C2CCCC(C)(C)C2)c(Cl)c1` (single isomer, unassigned) [Example 167], the EC50 in assay [1] (setting [3]) turned out to be 0.065 µM; in assay [2] (setting [4]), 0.049 µM.
Turning to `COCCN1C=C([C@H]2C[C@@H](C(=O)O)C2)C(C)(c2ccc(CCC(C)(C)C)c(Cl)c2)NC1=O` (single isomer, unassigned) [Example 168], the EC50 in assay [1] (setting [3]) came out at 0.012 µM; in assay [2] (setting [4]), 0.018 µM.
Consider `CC(C)C1=CN(CCC(=O)O)C(=O)N[C@@]1(C)c1ccc(C2CC2C(C)(C)C)c(Cl)c1` (single isomer, unassigned) [Example 169], for which the results for the EC50 in assay [1] (setting [3]) and in assay [2] (setting [4]) were 0.008 µM and 0.015 µM, respectively.
For `CC(C)C1=CN(CCC(=O)O)C(=O)N[C@@]1(C)c1ccc(C2CC2C(C)(C)C)c(Cl)c1` (single isomer, unassigned) [Example 170] the same measures were 0.058 µM and 0.04 µM.
`CC(C)(C)CCc1ccc(C2(C)NC(=O)N(CCC(=O)O)C=C2C2(C)CC2)cc1Cl` (single isomer, unassigned) [Example 171]: the EC50 in assay [1] (setting [3]) amounted to 0.012 µM; in assay [2] (setting [4]), 0.014 µM.
On to `CC(C)N1C=C(C(C)(C)CCC(=O)O)C(C)(c2ccc(CCC(C)(C)C)c(Cl)c2)NC1=O` (single isomer, unassigned) [Example 172], for which the EC50 in assay [1] (setting [3]) was found to be 0.013 µM; in assay [2] (setting [4]), 0.018 µM.
In the case of `CC(C)C1=CN(CCC(=O)O)C(=O)N[C@@]1(C)c1ccc(C2CC2C(C)C)c(Cl)c1` (single isomer, unassigned) [Example 174], the concentration giving a half-maximal response (EC50) in assay [1] (setting [3]) came to 0.014 µM; in assay [2] (setting [4]), 0.011 µM.
For `CC(C)(C)CCc1ccc(C2(C)NC(=O)N([C@H]3C[C@H](C(=O)O)C3)C=C2C(C)(C)CCCO)cc1Cl` (single isomer, unassigned) [Example 180], the values for the EC50 in assay [1] (setting [3]) and in assay [2] (setting [4]) were 0.032 µM and 0.05 µM, respectively.
For `COC(=O)[C@H]1C[C@H](N2C=C(C(C)(C)CCC(=O)O)C(C)(c3ccc(CCC(C)(C)C)c(Cl)c3)NC2=O)C1` (single isomer, unassigned) [Example 181] the same measures were 0.018 µM and 0.032 µM.
Consider `CC(C)(C)CCc1ccc(C2(C)NC(=O)N([C@H]3C[C@H](CO)C3)C=C2C(C)(C)CCC(=O)O)cc1Cl` (single isomer, unassigned) [Example 182], for which the EC50 in assay [1] (setting [3]) stood at 0.027 µM; in assay [2] (setting [4]) it was 0.076 µM.
For `CC(C)(C)CCc1ccc(C2(C)NC(=O)N(C3CCC3)C=C2C(C)(C)CCC(=O)O)cc1Cl` (single isomer, unassigned) [Example 184] the same measures were 0.011 µM and 0.022 µM.
As to `COC(=O)[C@H]1C[C@H](N2C=C(C(C)(C)CCCO)[C@@](C)(c3ccc(CCC(C)(C)C)c(Cl)c3)NC2=O)C1` (single isomer, unassigned) [Example 190], the EC50 in assay [1] (setting [5]) and in assay [2] (setting [7]) was > 8 µM each time. The “hRORγ luciferase activity, %-of-control” value in assay [1] (setting [6]) was “(74%)”. In assay [2] (setting [6]), the “mRORγ luciferase activity, %-of-control” value was “(66%)”.
As to `COC(=O)[C@H]1C[C@H](N2C=C(C(C)(C)CCCO)[C@](C)(c3ccc(CCC(C)(C)C)c(Cl)c3)NC2=O)C1` (single isomer, unassigned) [Example 191], the EC50 stood at 0.045 µM in assay [1] (setting [5]) and 0.071 µM in assay [2] (setting [7]).
`CC(C)C1=CN(C23C4C5C2C2C3C4C52C(=O)O)C(=O)N[C@@]1(C)c1ccc(CCC(C)(C)C)c(Cl)c1` (single isomer, unassigned) [Example 222]: the EC50 in assay [1] (setting [5]) amounted to 0.02 µM; in assay [2] (setting [7]), 0.04 µM.
With `CC(C)C1=CN(C2CC3(CC(C(=O)O)C3)C2)C(=O)N[C@@]1(C)c1ccc(CCC(C)(C)C)c(Cl)c1` (single isomer, unassigned) [Example 232], the EC50 is 0.015 µM in assay [1] (setting [5]) and 0.019 µM in assay [2] (setting [7]).
As for `CC(C)C1=CN(C2CC3(CC(C(=O)O)C3)C2)C(=O)N[C@@]1(C)c1ccc(CCC(C)(C)C)c(Cl)c1` (single isomer, unassigned) [Example 233], the EC50 worked out at 0.069 µM in assay [1] (setting [5]) and 0.072 µM in assay [2] (setting [7]).
`CC(C)C1=CN(C2CN(C(=O)OC(C)(C)C)CC2C(=O)O)C(=O)N[C@@]1(C)c1ccc(CCC(C)(C)C)c(Cl)c1` (single isomer, unassigned) [Example 237]: the results for the EC50 in assay [1] (setting [5]) and in assay [2] (setting [7]) were 0.719 µM and 0.673 µM, respectively.
In the same order, the values of `CC(C)C1=CN(C2CNCC2C(=O)O)C(=O)N[C@@]1(C)c1ccc(CCC(C)(C)C)c(Cl)c1` (single isomer, unassigned) [Example 238] are 0.715 µM and 0.666 µM.
In the same order, the values of `CC(=O)N1CC(C(=O)O)C(N2C=C(C(C)C)[C@](C)(c3ccc(CCC(C)(C)C)c(Cl)c3)NC2=O)C1` (single isomer, unassigned) [Example 239] are 4.56 µM and 3.06 µM.
In the same order, the values of `CC(C)C1=CN(C2CN(S(C)(=O)=O)CC2C(=O)O)C(=O)N[C@@]1(C)c1ccc(CCC(C)(C)C)c(Cl)c1` (single isomer, unassigned) [Example 240] are 0.108 µM and 0.147 µM.
Take `CC(C)C1=CN(C2CCCC2C(=O)O)C(=O)N[C@@]1(C)c1ccc(CCC(C)(C)C)c(Cl)c1` (single isomer, unassigned) [Example 242]: the concentration for a half-maximal effect (EC50) came out at 0.078 µM in assay [1] (setting [5]) and 0.058 µM in assay [2] (setting [7]).
For `CC(C)C1=CN(C2CCCC2C(=O)O)C(=O)N[C@@]1(C)c1ccc(CCC(C)(C)C)c(Cl)c1` (single isomer, unassigned) [Example 243] the same measures were 1.22 µM and 0.543 µM.
